{"source": "patent US9463188B2", "about": "“Osteopontin production inhibitor containing dictyopyrone derivative or dihydrodictyopyrone derivative as active ingredient” (TOHOKU UNIVERSITY, priority 2013, dated 2016)", "key": {"A549/OPNluc cells": {"system": "A549/OPNluc cells", "experiment": "WST assay (cell growth inhibition)", "type": "cell-based", "conditions": "Homo sapiens, 48±4 hours, WST-1, read-out: IC50 (concentration for 50% inhibition of cell growth)", "text": "A reporter vector pOPN1-luc obtained by inserting a human OPN promoter sequence (−765 to 23) into the multiple cloning site of pGL-3 basic vector (Promega) expresses luciferase when transfected into animal cells. This pOPN1-luc was transfected into a human non-small cell lung cancer-derived cell line A549 together with pPUR (Clontech) that expresses a puromycin resistance gene (puromycin-N-acetyl-transferase gene), and cells that could grow in a puromycin-supplemented medium and expressed luciferase were selected. The selected cells were named A549/OPNluc cells and used for observation of luciferase expression inhibitory effect under control of OPN promoter, as described later.\nA test compound was added to a culture liquid containing A549/OPNluc cells to observe its influence on the amount of luciferase expressed in the cells. Here, it can be considered that when the test compound has cytotoxity or cell growth-suppressing effect, the total expression level of luciferase is reduced due to a reduction in the number of living cells that depends on the concentration of the test compound, and therefore the luciferase expression inhibitory effect of the test compound under control of OPN promoter cannot be properly evaluated. For this reason, WST assay for quantification of cell proliferation ability or cell viability by colorimetric measurement was first performed to determine IC50 (concentration for 50% inhibition of cell growth) of the test compound for cell growth. Then, luciferase activity measurement was performed to determine EC50 (concentration for 50% inhibition of luciferase expression) of the test compound for luciferase expression under control of OPN promoter.\nA549/OPNluc cells were suspended in DMEM medium containing 10% fetal calf serum (FCS) and 1% penicillin/streptomycin (P/S) at 3×10^4 cells/mL to obtain a cell suspension, and 100 μL of the cell suspension was dispensed into each well of a 96-well plate. In order to perform the assay in triplicate, 3 wells were prepared for a control group and 3 wells were prepared for each test compound-treated group at each concentration. After the dispensing, the 96-well plate was incubated in a CO2 incubator (at 37° C. and 5% CO2) for 24±4 hours.\nThe test compound was dissolved in dimethylsulfoxide (DMSO) to obtain a 50 mmol/L solution, and the test compound solution was stored at −80° C. The test compound solution was diluted with DMSO in 2-fold dilution series (usually, in the range of 0.31 mmol/L to 20 mmol/L) to prepare test compound solutions whose concentration varied by two fold for WST assay.\nOnly DMSO (control) or the diluted test compound (sample) solution was dispensed in an amount of 0.5 μL into each well containing the cell suspension (200-fold dilution). The solution in each well was mixed with a vortex mixer, and then the 96-well plate was incubated in a CO2 incubator (at 37° C. and 5% CO2) for 48±4 hours. Then, 10 μL of Premix WST-1 Reagent (TAKARA BIO INC.) was added to each well. The solution in each well was mixed with a vortex mixer, and then the 96-well plate was incubated at 37° C. and 5% CO2. After 60 minutes or 120 minutes, absorbance values (450 nm) were measured using a microplate reader (Bio-Rad; Benchmark or Thermo Scientific; Varioskan Flash).\nThe absorbance values of the control wells and the absorbance values of the sample wells at each concentration were input into an Excel file to determine the percentages of absorbance values of the sample wells at each concentration with respect to the average of absorbance values of the control wells. From the determined values, a fitted curve was determined by the method of least squares to calculate IC50."}, "[1]": {"system": "human non-small cell lung cancer-derived cell line A549", "experiment": "Wound-Healing assay", "type": "cell-based", "conditions": "A549 cells, 2 days after injury", "text": "In the next stage, a determination was made as to whether or not the physiological function of cells induced by OPN production was suppressed by the compound 3 as a test compound. The determination was made by performing cell Wound-Healing assay. This assay is commonly known as a method for evaluating cell migration capacity. When a wound is made in a cell monolayer by scratching some cells with a pipette tip or the like, the wound is closed by migration of cells around the wound. The influence of a test compound on such function was observed by adding the test compound to a cell culture liquid. […]\nBased on the taken images, the areas of the wounds were determined using Image-Pro Plus 7.0J (MediaCybernetics). Then, a wound healing rate (%) was calculated based on the following calculation formula: Wound healing rate (%)=100−[area of wound after 2 days from injury/area of wound just after injury]×100. The average wound-healing rates (%) of the control group and the two compound 3-treated groups at different concentrations were calculated. Further, the percentage of the wound-healing rate of the compound-treated group with respect to the wound-healing rate of the control group was also calculated.\nThe statistical processing of calculated values of the wound-healing rate was performed using Excel statistics, Statcel 3. […]"}}, "data": [{"smiles": "CCCCCCCCCCCC(=O)[C@H]1C(=O)O[C@@H](C)C[C@@H]1C", "note": "[Chemical formula 3]", "values": [{"measurement": "IC50", "setting": "A549/OPNluc cells", "result": 56.2, "unit": "µM"}, {"measurement": "wound-healing rate vs control group", "setting": "[1]; 12.5 μmol/L", "result": "no difference"}, {"measurement": "wound-healing rate vs control group", "setting": "[1]; 25 μmol/L, significance level less than 1%", "result": "significantly suppressed"}]}]}
